Legend:
[1] = target: T1, Histone deacetylase (Rattus norvegicus) (UniProt Q6P6W3+Q99P99+Q99P96+Q4QQW4+Q99P97+Q5RJZ2+B1WBY8); settings: at 0.1 µM
Description: Inhibition of rat liver HDAC at 0.1 uM pre-incubated for 15 mins before Boc-Lys(Ac)-AMC substrate addition and measured after 30 mins by fluorometry

[2] = target: T1, Histone deacetylase (Rattus norvegicus); settings: at 10 µM
Description: Inhibition of rat liver HDAC at 10 uM pre-incubated for 15 mins before Boc-Lys(Ac)-AMC substrate addition and measured after 30 mins by fluorometry

[3] = target: T2, Protein deacetylase HDAC6 (Homo sapiens, UniProt Q9UBN7); assay: Inhibition of human HDAC6 pre-incubated for 30 mins before substrate addition and measured after 30 mins by HDAC-Glo I/II assay
T2 sequence (Q9UBN7 whole entry): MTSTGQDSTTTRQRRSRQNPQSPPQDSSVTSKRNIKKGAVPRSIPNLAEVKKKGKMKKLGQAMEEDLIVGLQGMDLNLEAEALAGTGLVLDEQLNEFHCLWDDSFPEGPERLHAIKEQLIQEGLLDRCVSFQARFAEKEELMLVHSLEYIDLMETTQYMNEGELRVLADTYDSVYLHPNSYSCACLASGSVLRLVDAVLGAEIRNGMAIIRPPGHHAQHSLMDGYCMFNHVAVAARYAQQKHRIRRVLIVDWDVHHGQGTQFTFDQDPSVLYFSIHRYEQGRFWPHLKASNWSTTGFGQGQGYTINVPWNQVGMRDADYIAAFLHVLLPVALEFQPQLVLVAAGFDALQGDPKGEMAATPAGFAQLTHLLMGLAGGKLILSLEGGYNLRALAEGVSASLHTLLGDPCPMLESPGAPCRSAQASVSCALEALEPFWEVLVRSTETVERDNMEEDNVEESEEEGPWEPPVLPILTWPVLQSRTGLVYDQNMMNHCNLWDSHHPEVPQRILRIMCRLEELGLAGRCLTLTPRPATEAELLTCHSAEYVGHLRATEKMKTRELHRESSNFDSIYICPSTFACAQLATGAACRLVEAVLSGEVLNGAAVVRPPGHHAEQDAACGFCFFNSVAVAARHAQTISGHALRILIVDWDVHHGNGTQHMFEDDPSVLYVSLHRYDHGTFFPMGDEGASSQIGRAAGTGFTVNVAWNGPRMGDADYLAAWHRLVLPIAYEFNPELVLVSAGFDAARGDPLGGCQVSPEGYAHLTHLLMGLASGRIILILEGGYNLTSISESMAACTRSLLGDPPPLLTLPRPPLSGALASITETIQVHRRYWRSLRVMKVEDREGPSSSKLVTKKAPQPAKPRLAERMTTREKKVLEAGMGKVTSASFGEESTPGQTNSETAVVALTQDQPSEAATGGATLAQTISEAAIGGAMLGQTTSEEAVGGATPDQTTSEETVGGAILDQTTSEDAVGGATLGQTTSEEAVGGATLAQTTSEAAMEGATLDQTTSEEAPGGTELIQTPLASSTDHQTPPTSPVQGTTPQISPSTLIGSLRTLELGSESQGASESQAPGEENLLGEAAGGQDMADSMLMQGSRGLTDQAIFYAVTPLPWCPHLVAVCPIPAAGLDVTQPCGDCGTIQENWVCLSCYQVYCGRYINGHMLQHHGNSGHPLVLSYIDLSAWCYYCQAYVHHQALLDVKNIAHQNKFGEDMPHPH

Histone deacetylase 8 = target: T3, Histone deacetylase 8 (Homo sapiens, UniProt Q9BY41); assay: Inhibition of human HDAC8 pre-incubated for 30 mins before substrate addition and measured after 30 mins by HDAC-Glo I/II assay
T3 sequence (Q9BY41 whole entry): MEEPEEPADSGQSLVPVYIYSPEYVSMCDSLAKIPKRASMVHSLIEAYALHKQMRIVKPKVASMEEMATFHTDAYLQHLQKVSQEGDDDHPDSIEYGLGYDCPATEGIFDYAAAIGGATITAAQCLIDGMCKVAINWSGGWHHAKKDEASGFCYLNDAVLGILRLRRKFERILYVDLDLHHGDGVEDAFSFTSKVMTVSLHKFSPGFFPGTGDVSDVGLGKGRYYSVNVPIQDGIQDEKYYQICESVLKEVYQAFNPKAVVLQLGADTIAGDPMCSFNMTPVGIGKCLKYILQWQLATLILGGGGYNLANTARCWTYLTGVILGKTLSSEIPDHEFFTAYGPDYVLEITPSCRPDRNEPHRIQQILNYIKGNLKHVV

Histone deacetylase 2 = Histone deacetylase 2 (Homo sapiens, UniProt Q92769); assay: Inhibition of human HDAC2 pre-incubated for 30 mins before substrate addition and measured after 30 mins by HDAC-Glo I/II assay
Histone deacetylase 1 = Histone deacetylase 1 (Homo sapiens, UniProt Q13547); assay: Inhibition of human HDAC1 pre-incubated for 30 mins before substrate addition and measured after 30 mins by HDAC-Glo I/II assay
Histone deacetylase 9 = Histone deacetylase 9 (Homo sapiens, UniProt Q9UKV0); assay: Inhibition of human HDAC9 pre-incubated for 30 mins before substrate addition and measured after 30 mins by HDAC-Glo I/II assay
Histone deacetylase 4 = Histone deacetylase 4 (Homo sapiens, UniProt P56524); assay: Inhibition of human HDAC4 pre-incubated for 30 mins before substrate addition and measured after 30 mins by HDAC-Glo I/II assay
Histone deacetylase 3 = Histone deacetylase 3 (Homo sapiens, UniProt O15379); assay: Inhibition of human HDAC3 pre-incubated for 30 mins before substrate addition and measured after 30 mins by HDAC-Glo I/II assay
Chain of Histone deacetylase 3 (O15379 whole entry): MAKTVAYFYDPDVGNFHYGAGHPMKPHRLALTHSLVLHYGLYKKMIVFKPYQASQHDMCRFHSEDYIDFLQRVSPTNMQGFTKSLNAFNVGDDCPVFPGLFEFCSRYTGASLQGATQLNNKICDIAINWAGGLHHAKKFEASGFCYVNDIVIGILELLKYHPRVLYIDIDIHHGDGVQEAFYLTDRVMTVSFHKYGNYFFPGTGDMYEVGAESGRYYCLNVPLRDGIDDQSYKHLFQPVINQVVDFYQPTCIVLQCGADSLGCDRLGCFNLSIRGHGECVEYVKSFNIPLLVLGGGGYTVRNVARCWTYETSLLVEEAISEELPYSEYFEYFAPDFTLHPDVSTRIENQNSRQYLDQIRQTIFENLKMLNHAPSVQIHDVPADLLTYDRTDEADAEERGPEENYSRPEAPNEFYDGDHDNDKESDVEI

Chain of Histone deacetylase 9 (Q9UKV0 whole entry): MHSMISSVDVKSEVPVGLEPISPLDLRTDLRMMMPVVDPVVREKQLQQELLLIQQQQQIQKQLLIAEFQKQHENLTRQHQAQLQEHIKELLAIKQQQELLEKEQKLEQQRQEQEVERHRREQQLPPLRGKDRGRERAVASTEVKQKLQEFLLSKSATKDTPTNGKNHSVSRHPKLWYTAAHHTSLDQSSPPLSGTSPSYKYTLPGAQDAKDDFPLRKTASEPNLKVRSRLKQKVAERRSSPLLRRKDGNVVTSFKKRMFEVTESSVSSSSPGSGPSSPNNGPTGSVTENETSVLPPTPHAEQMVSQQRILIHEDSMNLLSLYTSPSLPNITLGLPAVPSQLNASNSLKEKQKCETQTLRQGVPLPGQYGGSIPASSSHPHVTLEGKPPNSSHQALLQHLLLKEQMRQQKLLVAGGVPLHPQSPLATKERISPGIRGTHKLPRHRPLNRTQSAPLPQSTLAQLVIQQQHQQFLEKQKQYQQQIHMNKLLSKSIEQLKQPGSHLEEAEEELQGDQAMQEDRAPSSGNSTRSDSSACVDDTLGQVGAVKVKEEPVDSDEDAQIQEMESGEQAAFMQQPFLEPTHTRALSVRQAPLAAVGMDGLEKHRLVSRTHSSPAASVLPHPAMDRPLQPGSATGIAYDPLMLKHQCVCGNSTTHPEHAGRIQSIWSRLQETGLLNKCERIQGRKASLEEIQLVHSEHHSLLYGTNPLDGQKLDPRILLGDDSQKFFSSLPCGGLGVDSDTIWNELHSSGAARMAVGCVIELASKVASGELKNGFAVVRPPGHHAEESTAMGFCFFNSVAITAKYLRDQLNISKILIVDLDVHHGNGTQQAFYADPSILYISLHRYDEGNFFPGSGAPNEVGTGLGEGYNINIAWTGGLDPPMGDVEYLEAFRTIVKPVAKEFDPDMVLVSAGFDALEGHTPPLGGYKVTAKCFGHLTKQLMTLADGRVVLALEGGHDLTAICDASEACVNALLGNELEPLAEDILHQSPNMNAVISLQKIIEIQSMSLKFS
Chain of Histone deacetylase 2 (Q92769 whole entry): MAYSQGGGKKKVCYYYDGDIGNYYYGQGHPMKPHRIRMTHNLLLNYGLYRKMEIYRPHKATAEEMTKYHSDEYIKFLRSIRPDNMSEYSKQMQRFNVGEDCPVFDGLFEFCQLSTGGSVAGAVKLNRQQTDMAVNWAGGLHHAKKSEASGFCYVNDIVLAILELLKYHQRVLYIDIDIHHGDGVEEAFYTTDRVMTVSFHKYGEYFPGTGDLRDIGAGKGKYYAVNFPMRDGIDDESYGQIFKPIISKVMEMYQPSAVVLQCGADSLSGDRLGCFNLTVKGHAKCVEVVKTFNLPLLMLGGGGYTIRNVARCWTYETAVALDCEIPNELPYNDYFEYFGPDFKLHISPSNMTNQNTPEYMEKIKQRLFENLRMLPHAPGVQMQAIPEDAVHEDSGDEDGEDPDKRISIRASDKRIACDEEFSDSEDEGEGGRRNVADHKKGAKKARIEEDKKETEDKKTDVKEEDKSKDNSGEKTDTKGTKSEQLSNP
Chain of Histone deacetylase 1 (Q13547 whole entry): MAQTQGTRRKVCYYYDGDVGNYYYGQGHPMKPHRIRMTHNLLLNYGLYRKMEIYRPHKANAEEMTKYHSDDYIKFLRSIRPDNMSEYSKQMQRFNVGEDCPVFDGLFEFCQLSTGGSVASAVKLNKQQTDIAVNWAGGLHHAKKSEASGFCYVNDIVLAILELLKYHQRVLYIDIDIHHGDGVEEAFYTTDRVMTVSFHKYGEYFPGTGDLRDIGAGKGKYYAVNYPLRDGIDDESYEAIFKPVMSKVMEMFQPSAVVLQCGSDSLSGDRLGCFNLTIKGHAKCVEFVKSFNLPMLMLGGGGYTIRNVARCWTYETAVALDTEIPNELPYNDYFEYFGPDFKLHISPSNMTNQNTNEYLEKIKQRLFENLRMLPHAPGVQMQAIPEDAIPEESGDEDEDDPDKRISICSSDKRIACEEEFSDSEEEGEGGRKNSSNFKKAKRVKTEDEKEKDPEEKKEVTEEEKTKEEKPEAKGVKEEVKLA
Chain of Histone deacetylase 4 (P56524 whole entry): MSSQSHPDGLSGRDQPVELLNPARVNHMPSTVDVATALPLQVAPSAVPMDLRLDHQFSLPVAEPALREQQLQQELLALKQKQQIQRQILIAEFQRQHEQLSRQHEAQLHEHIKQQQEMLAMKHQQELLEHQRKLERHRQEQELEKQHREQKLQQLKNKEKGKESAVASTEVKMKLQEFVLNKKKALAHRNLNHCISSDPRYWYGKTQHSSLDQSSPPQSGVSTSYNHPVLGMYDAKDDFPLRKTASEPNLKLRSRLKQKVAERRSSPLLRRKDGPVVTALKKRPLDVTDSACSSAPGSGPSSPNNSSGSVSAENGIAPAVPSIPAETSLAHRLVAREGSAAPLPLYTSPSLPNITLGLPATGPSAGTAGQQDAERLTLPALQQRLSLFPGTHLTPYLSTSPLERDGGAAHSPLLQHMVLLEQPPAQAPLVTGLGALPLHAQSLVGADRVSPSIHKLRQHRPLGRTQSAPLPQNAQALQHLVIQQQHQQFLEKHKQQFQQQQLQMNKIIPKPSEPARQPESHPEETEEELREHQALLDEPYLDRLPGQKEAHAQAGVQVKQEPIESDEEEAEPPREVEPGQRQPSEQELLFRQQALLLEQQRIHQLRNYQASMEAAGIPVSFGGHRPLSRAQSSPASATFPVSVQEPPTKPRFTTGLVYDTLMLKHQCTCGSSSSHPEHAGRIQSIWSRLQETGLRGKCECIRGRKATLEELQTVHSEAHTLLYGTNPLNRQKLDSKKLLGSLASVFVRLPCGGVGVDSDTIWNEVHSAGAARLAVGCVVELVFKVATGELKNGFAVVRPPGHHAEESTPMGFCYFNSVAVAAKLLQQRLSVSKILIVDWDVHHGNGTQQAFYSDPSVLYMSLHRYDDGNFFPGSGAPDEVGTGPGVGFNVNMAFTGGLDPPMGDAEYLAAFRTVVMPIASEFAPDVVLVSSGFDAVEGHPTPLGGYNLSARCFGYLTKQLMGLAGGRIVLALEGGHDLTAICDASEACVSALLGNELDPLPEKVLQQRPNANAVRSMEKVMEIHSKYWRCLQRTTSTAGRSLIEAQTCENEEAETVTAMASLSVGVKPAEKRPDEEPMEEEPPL

SMILES	inhibition [1] [%]	inhibition [2] [%]	IC50 [3] [nM]	IC50 (Histone deacetylase 8) [nM]	IC50 (Histone deacetylase 2) [nM]	IC50 (Histone deacetylase 1) [nM]	IC50 (Histone deacetylase 9) [nM]	IC50 (Histone deacetylase 4) [nM]	IC50 (Histone deacetylase 3) [nM]
O=C(CCCCCOc1cccc2ccc(=O)[nH]c12)NO	7	86	–	–	–	–	–	–	–
CC1(C)CC(=O)Nc2ccc(C(=O)NC[C@H]3CC[C@H](/C=C/C(=O)NO)CC3)cc21	55	98	58	6	8.2	3.8	5.2	58	15
CN1C(=O)CC(C)(C)c2cc(NC(=O)CCCCCCC(=O)NO)ccc21	55	98	–	–	–	–	–	–	–
CC1(C)CC(=O)Nc2cc(OCCCCCC(=O)NO)ccc21	11	91	–	–	–	–	–	–	–
O=C(CCCCCCC(=O)Nc1ccc2oc(=O)ccc2c1)NO	46	98	–	–	–	–	–	–	–
CC1(C)CC(=O)Nc2ccc(C(=O)NC[C@H]3CC[C@@H](/C=C/C(=O)NO)CC3)cc21	22	92	720	21	310	190	91	750	370
CC1(C)CC(=O)Nc2c(F)cc(C(=O)NCCCCCCC(=O)NO)cc21	57	99	–	–	–	–	–	–	–
O=C(CCCOc1ccc2c(c1)CCC(=O)N2)NO	9	65	–	–	–	–	–	–	–
CC1(C)CC(=O)Nc2cc(C(=O)NCc3cccc(/C=C/C(=O)NO)c3)ccc21	27	96	–	–	–	–	–	–	–
CC1(C)CC(=O)Nc2ccc(C(=O)NCc3cccc(/C=C/C(=O)NO)c3)cc21	22	95	290	200	100	670	570	2000	210
O=C(CCCCCCS(=O)(=O)Nc1ccc2c(c1)CCC(=O)N2)NO	11	91	–	–	–	–	–	–	–
O=C(CCCCCOc1ccc2c(c1)CCC(=O)N2)NO	13	91	–	–	–	–	–	–	–
CC1(C)CC(=O)Nc2ccc(OCCCCCC(=O)NO)cc21	11	88	–	–	–	–	–	–	–
O=C(CCCCCC(=O)Nc1ccc2c(c1)CCC(=O)N2)NO	24	95	–	–	–	–	–	–	–
O=C(CCCCCOc1ccc2c(c1)NC(=O)CC2)NO	13	91	–	–	–	–	–	–	–
CC1(C)CC(=O)Nc2ccc(S(=O)(=O)NCCCCCCC(=O)NO)cc21	17	94	–	–	–	–	–	–	–
O=C(CCCCCCNC(=O)c1ccc2c(c1)CCC(=O)N2)NO	45	98	430	53	20	24	35	120	85
CC1(C)CC(=O)Nc2ccc(C(=O)NCCCCCCC(=O)NO)cc21	44	98	92	55	93	30	39	63	69
O=C(CCCCCOc1ccc2[nH]c(=O)ccc2c1)NO	19	94	–	–	–	–	–	–	–
O=C(CCCCCCC(=O)Nc1ccc2[nH]c(=O)ccc2c1)NO	66	99	66	48	45	35	58	63	54
